Assay results published in patent US20220401404A1, “Co-Administration Therapy to Prevent Neurodegeneration and Enhance Neuroprotection” (THE REGENTS OF THE UNIVERSITY OF CALIFORNIA, priority 2019, published 2022).
“And” between values parts separate entries of the source, which are not always exact repeats. Equal entries are not always repeated. Where two headings read alike, the source gives them in different places. Blank lines part the entries; values can stand above or below the molecule they belong to.

Experiments:
recombinant hCES1b = target: T1, recombinant hCES1b (Homo sapiens, UniProt P23141); test: Inhibition of hCES1b-mediated fenofibrate hydrolysis (Ki); format: biochemical; conditions: matrix hCES1b, substrate fenofibrate
T1 sequence (P23141 18-567): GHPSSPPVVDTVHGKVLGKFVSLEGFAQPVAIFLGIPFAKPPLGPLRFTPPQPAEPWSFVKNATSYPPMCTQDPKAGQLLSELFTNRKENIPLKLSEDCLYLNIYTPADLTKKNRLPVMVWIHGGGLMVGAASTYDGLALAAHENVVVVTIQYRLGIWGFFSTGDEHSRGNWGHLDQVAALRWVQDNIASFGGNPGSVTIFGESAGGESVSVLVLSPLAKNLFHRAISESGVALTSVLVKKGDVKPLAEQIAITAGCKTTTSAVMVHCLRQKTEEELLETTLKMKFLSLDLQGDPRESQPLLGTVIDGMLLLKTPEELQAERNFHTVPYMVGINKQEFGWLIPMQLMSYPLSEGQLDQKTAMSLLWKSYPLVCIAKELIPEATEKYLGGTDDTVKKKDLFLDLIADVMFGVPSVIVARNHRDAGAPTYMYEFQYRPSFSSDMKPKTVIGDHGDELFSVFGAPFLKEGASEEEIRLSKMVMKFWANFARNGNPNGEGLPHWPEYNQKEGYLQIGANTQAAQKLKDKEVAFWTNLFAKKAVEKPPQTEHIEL
Experimental: (§1) FIGS. 5A-5D. […] Reaction was stopped, supernatant collected and fenofibric acid level was determined by LC-MS/MS. Ki values were calculated, and the type of inhibition was determined by fitting data to enzyme inhibition models: competitive (FIG. 5A), non-competitive (FIG. 5B), uncompetitive (FIG. 5C) and mixed (FIG. 5D) models. The samples were analyzed in duplicates and represented as mean values.
(§2) Incubation mixtures containing 100 mM Tris-Cl buffer (pH 7.4), recombinant hCES1b (0.05 mg/mL) or pooled human liver microsomes (1 mg/mL) and 8 concentrations of kaempferol or a positive control inhibitor (bis(4-nitrophenyl)-phosphate, BNP) were pre-incubated for 2 minutes at 37° C. […] The reactions were stopped by the addition of a stop solution containing an internal standard. Samples were centrifuged to precipitate protein and the supernatant was collected for LC-MS/MS analysis. The fenofibric acid was quantified using standard curves. The Ki values were calculated, and the type of inhibition was determined by fitting data to specific enzyme inhibition models (Table 2).

[1] = target: pooled human liver microsomes (HLM); test: Inhibition of fenofibrate hydrolysis in pooled human liver microsomes (Ki); format: in vitro ADME; conditions: matrix HLM, substrate fenofibrate
Experimental: as §1, with “6A-6D.” for “5A-5D.”, “The reaction” for “Reaction”, “6A),” for “5A),”, “6B),” for “5B),”, “6C)” for “5C)”, “6D)” for “5D)”
as §2

BV2 cells = test: LPS-induced IL-1β and PGC-1α gene expression in BV2 cells (qRT-PCR); format: cell-based; conditions: for reduction of LPS-induced IL-1β expression: then 0.1 ng/ml LPS 1 hour
Excerpt: FIG. 4. […] Then total RNA was isolated for IL-1β gene qRT-PCR analysis.
FIGS. 7A and 7B. […] Cell lysates were collected, and RNA was isolated for IL-1β (FIG. 7A) and PGC-1α (FIG. 7B) gene expression by RT-PCR.
Total BV2 cell RNA was extracted for IL-1β gene expression via qRT-PCR analysis.
Cell lysates were collected for determination of IL-1β and PGC-1α gene expression via qRT-PCR.

[2] = test system: primary astrocytes derived from PGC-1α WT (PGC-1α+/+) mice; test: LPS-induced inflammation in primary astrocytes from PGC-1α WT mice (RT-PCR gene expression); format: cell-based, mouse; conditions: fenofibrate 20 μM overnight, then LPS 1 hour
Experimental: (§3) Total RNA was isolated and IL-1β (A, D), TNF-α (B, E) and PGC-1α (C, F) gene expression were determined by RT-PCR.
(§4) Primary astrocytes from postnatal heterozygous mice were isolated and cultured and wild type mice were obtained by breeding these heterozygous knockout mice. […] Total RNA was isolated, and gene expression of pro-inflammatory cytokines, IL-1β and TNF-α, was determined by RT-PCR.

[3] = test system: primary astrocytes derived from PGC-1α heterozygous KO (PGC-1α+/−) mice; test: LPS-induced inflammation in primary astrocytes from PGC-1α heterozygous KO mice (RT-PCR gene expression); format: cell-based, mouse
Experimental: as §3, §4

[4] = Hydrolysis of fenofibrate to fenofibric acid by pooled human liver microsomes (Km, Vmax); conditions: pH 7.4
Experimental: FIGS. 8A and 8B. […] Reaction was stopped, supernatant collected and fenofibric acid level was determined by LC-MS/MS. […] The samples were analyzed in duplicates and represented as mean values.
The reactions were stopped by the addition of a stop solution containing an internal standard.

[5] = substrate: CC(C)OC(=O)C(C)(C)Oc1ccc(C(=O)c2ccc(Cl)cc2)cc1; test: cells, lysate or membranes named; format: biochemical, human; conditions: other: matrix hCES1b 0.05 mg/mL, product fenofibric acid, pH 7.4, 37° C.
Experimental: Reaction was stopped, supernatant collected and fenofibric acid level was determined by LC-MS/MS. Standard curve was plotted and the Km and Vmax values were calculated. The samples were analyzed in duplicates and represented as mean values.
Assay procedure: Incubation mixtures containing 100 mM Tris-Cl buffer (pH 7.4), and recombinant hCES1b (0.05 mg/mL) or pooled HLM (1 mg/mL) were warmed to 37° C. […] The reactions were stopped by the addition of a stop solution containing an internal standard. Samples were centrifuged to precipitate the protein while the supernatant was collected for determination of fenofibric acid using liquid chromatography-tandem mass spectrometry (LC-MS/MS) analysis. […] The Km and Vmax values were calculated by fitting data to enzyme kinetics models (Table 1).

[6] = read-out: Ki, Competitive inhibition model
[7] = read-out: Ki, Mixed inhibition model
[8] = read-out: Ki, Non-Competitive inhibition model
[9] = read-out: Ki, Uncompetitive inhibition model

Molecule: O=[N+]([O-])c1ccc(OP(=O)(O)Oc2ccc([N+](=O)[O-])cc2)cc1 [BNP, bis(4-nitrophenyl)-phosphate]
Ki (recombinant hCES1b; [6]): 0.044 µM
Ki (recombinant hCES1b; [7]): 0.044 µM
Ki (recombinant hCES1b; [8]): 0.17 µM
Ki (recombinant hCES1b; [9]): 0.096 µM
Ki [1, 6]: 1.67 µM
Ki [1, 7]: 1.66 µM
Ki [1, 8]: 5.17 µM
Ki [1, 9]: 3.02 µM

Ki (recombinant hCES1b; [6]): 36.2 µM
Ki (recombinant hCES1b; [7]): 101 µM
Ki (recombinant hCES1b; [8]): 101 µM
Ki (recombinant hCES1b; [9]): 64.7 µM
Ki [1, 6]: 110 µM
Ki [1, 8]: 235 µM
Ki [1, 9]: 131 µM
Molecule: O=c1c(O)c(-c2ccc(O)cc2)oc2cc(O)cc(O)c12 [Kaempferol, 3,5,7-trihydroxy-2-(4-hydroxyphenyl)-4H-1-benzopyran-4-one]
reduction of LPS-induced IL-1β expression (BV2 cells; 10 μM, 18 hours): 60%
reduction of LPS-induced IL-1β expression (BV2 cells; 20 μM, 18 hours): 85%
effect on PGC-1α expression (BV2 cells; kaempferol alone 10, 20 μM): did not enhance PGC-1α expression

Molecule: CC(C)OC(=O)C(C)(C)Oc1ccc(C(=O)c2ccc(Cl)cc2)cc1 [Fenofibrate]
reduction of LPS-induced IL-1β expression [2]: 60%
enhancement of PGC-1α expression ([3]; fenofibrate 10 and 20 μM): 1.5 fold
reduction of LPS-induced IL-1β expression ([3]; fenofibrate overnight (5, 10, 20 μM tested; concentration not stated), then LPS 1 hour): 55%
reduction of LPS-induced IL-1β expression (BV2 cells; 20 μM, 18 hours): 80% and 70%
increase of PGC-1α expression (BV2 cells; 20 μM, 18 hours, then LPS 1 hour): 2 fold
Km at 10 min [4]: 5.4 µM

B1: recombinant hCES1b (Homo sapiens) (protein)
chain: T1 sequence (P23141 18-567)
Km [5]: 6.04 µM
Vmax [5]: 0.0283 µmol/min/mg
